Measured values: patent US20240279217A1, “Heterocyclic compounds for the treatment of tuberculosis” (TECNIMEDE - SOCIEDADE TÉCNICO-MEDICINAL, SA, priority 2021, published 2024)
Converted amounts (≈) assume the structure as drawn.

Key:
HepG2 cell line = experiment: In vitro cytotoxicity assay (MTS tetrazolium reduction); assay type: cell-based; details: HepG2, 48 h
Protocol: In an embodiment, in vitro cytotoxicity assay was carried out. In vitro cytotoxicity assay was performed in HepG2 cell line using a tetrazolium reduction assay for cell viability evaluation (MTS reduction as described by Cory A. et al (Cancer Commun. 1991, 3 (7), 207-212)). The assay was performed in 96-well plates for 48 h at 37° C. and 5% CO2 in incubation medium (low glucose DMEM with Glutamax, 10% FBS, 1% Pen/Strep and DMSO). Cells were exposed to 8 different compound concentrations in successive dilutions (usually, base 2), plus a positive control (a compound in a concentration known to decrease cell viability above 50%) and a negative control (incubation medium). Six replicate wells were assayed for each condition. Compound stock solutions were prepared in DMSO at 20 mM, whenever possible, filter sterilized, aliquoted and stored at −20° C. The maximum compound concentrations tested depend on its solubility in incubation medium, and on the maximum DMSO percentage allowable without loss of cell viability. At the end of the incubation period, tetrazolium reagent was added (CellTiter 96′ AQueous Solution from Promega); cells were incubated for another 3 hours in order to promote tetrazolium reduction to formazan by viable cells. The amount of soluble formazan produced was evaluated by 490 nm absorbance reading in a spectrophotometer plate reader. […] Whenever possible, IC50 was calculated as the concentration of compound that reduces cell viability by 50%.

[1] = test system: H37Rv M. tuberculosis (strain ATCC 25618); experiment: Mycobacterium tuberculosis susceptibility assay REMA (resazurin microtiter assay); assay type: cell-based
[2] = Metabolic stability assay in liver microsomes; assay type: in vitro ADME; details: human, pH 7.4, 37° C., 60 minutes
Protocol: In an embodiment, metabolic stability assay was carried out. Metabolic stability was assessed by incubating test compounds in 96-well plates in 5 aliquots of 40 μL each (one for each time point) in liver microsomal incubation medium. This medium contained MgCl2 (3.3 mM), NADPH-cofactor system (NADPH (3 mM), glucose-6-phosphate (5.3 mM), glucose-6-phosphate dehydrogenase (0.67 units/ml)) and 0.42 mg of liver microsomal protein per ml in phosphate buffer (100 mM, pH 7.4). Control incubations were performed replacing the NADPH-cofactor system by phosphate buffer. Test compounds (1 μM, final solvent concentration 1.6%) were incubated with microsomes at 37° C. and 100 rpm orbital shaking.
Imipramine and Propranolol were incubated in parallel as reference compounds. Each reaction was performed in duplicate. Five time points over a duration 60 minutes were analysed. The reactions were stopped by adding 12 volumes of 90% acetonitrile in water to incubation aliquots, followed by protein sedimentation by centrifugation. Supernatants were analysed using a Shimadzu VP HPLC system with a reverse phase HPLC column, coupled with tandem mass spectrometer API 3000 (PE Sciex). […] The elimination constant (kel), half-life (t1/2) and intrinsic clearance (Clint) were determined in plot of In(AUC) versus time, using linear regression analysis for each test and reference compound.

[3] = Human plasma protein binding (PPB) assay, equilibrium dialysis; assay type: in vitro ADME; details: non-diluted plasma, pH 7.4, percentage of plasma protein bounded compound, 5 hours dialysis, read-out: hPPB
Protocol: In an embodiment, human plasma protein binding (PPB) assay was carried out. The assay was performed in a multiple-use 96-well dialysis unit (HTD96b dialyzer). Each individual well unit consisted of 2 chambers separated by a vertically aligned dialysis membrane of predetermined pore size (MWCO 12-14 kDa). 120 μl of non-diluted plasma spiked with the compound (1 μM, 1% final DMSO concentration) was added to one chamber and the same volume of phosphate buffer saline pH 7.4 to the other chamber. HTD96b dialyzer was covered with adhesive sealing film and incubated at 37° C. and 100 rpm orbital shaking for 5 hours. Verapamil was also evaluated in parallel as reference compound. For sample preparation, an aliquot of the content of each chamber was mixed with the same volume of the blank opposite matrix. […] Supernatants were analysed using a Shimadzu VP HPLC system with a reverse phase column, coupled with a tandem mass spectrometer API 3000 (PE Sciex). […]
The percentage of plasma protein bounded compound and its recovery were calculated using the equations below: […]
The percentage of plasma protein bounded compound and its recovery were calculated using the values obtained for each compound in the quantification of the 3 samples (in buffer, plasma and standard solution).

[4] = Stability in human plasma (PS) assay; assay type: in vitro ADME; details: 37° C., 120 minutes, read-out: t1/2 (min) hPS
Protocol: In an embodiment, stability in human plasma (PS) assay was carried out. Test compounds (1 μM, final DMSO concentration 1%) were incubated in 5 aliquots of 70 μL each (one for each time point), in duplicates, at 37° C. with 100 rpm orbital shaking. Five time points over a duration 120 minutes have been analysed. Two reference compounds were analysed in parallel. The reactions were stopped by the addition of 420 μL of acetonitrile-water mixture (90:10) and subsequent plasma proteins sedimentation were achieved by centrifugation. Supernatants were analysed in a Shimadzu VP HPLC system with a reverse phase column, coupled with a tandem mass spectrometer API 3000 (PE Sciex). Both the positive and negative ion modes of the TurbolonSpray ion source were used. Acquisition and analysis of the data were performed using Analyst 1.5.2 software (PE Sciex). The percentage of the test compounds remaining after incubation in plasma and their half-lives (T1/2) were calculated.

COc1cccc2ccc(N3CCC(c4nc(-c5ccc(OC(F)(F)F)cc5)no4)CC3)nc12 [Compound 3, 5-(1-(8-methoxyquinolin-2-yl)piperidin-4-yl)-3-(4-(trifluoromethoxy)phenyl)-1,2,4-oxadiazole]
IC50 (HepG2 cell line; Homo sapiens): > 100 µM
IC50 (HepG2 cell line; Table 2, cytotoxicity, MTS): > 100 µM
MIC ([1]; Mycobacterium tuberculosis, 144 h, read-out: REMA MIC): 7.8 to 15.6 µM (≈ 3.67 to 7.34 µg/mL)
REMA MIC ([1]; Table 2, MTB growth REMA, H37Rv, Middlebrook 7H9, 6 days at 37° C.): +++ (7.8-15.6)
half-life at 1 μM [2]: 3.03 h
microsomal CLint at 1 μM [2]: 9.2 µL/min/mg
fraction unbound at 5 h, 1 μM [3]: ≤ 0.001
half-life at 1 μM [4]: > 240 min
